Results as given in patent US20220204491A1, “FXR (NR1H4) MODULATING COMPOUNDS” (Gilead Sciences, Inc., priority 2019, published 2022).

Test system: Farnesoid X receptor
Experiment: In vivo pharmacodynamics in cynomolgus monkey: plasma FGF19 after oral versus IV dosing
Conditions: for FGF19 levels compared to baseline: IV administration; for FGF19 levels compared to baseline / plasma FGF19 over the dosing interval compared to baseline: cynomolgus monkey; for FGF19 AUClast: male cynomolgus monkey, plasma, 24 hour period; for Ratio AUClast to FG19/GS: FGF19 AUClast over drug AUClast; for PO/IV: PO ratio (FGF19/GS AUClast) over IV ratio; for plasma FGF19 over the dosing interval compared to baseline: oral administration
Method: In vivo pharmacodynamics of Formula (I) of Example 1, Comparative Example 1, and Comparative Example 2 were determined as follows.
Oral solution doses of Formula (I) (Example 1) were formulated at concentrations of 1 mg/mL in aqueous suspensions of 1% sodium laurel sulfate (SLS), 1% ethanol, and 98% water at pH 2. Oral suspension doses of Comparative Example 1, and Comparative Example 2 were formulated at concentrations of 2.5 mg/mL in 1% hydyroxypropyl methylcellulose (HPMC), 0.5% Tween 80, and 98.5% water.
Intravenous doses of compounds of Formula (I) (Example 1), Comparative Example 1, and Comparative Example 2 were formulated at concentrations of 0.5 mg/mL in a vehicle including 5% DMSO, 15% NMP, 60% PEG 300 and water with 1.1 equivalents of NaOH.
Each dosing group consisted of three to six male Cynomolgus monkeys. At dosing, the animals weighed between 2.4 and 4.4 kg.
The oral test articles were administered to the monkeys via oral gavage at 2 mL/kg or nasogastric untubation at 5 mL/kg for a dose of 5 mg/kg. The intravenous test articles were administered as an approximately 30-minute infusion via an indwelling catheter in a saphenous or cephalic vein at approximately 2 mL/kg for a dose of 1 mg/kg.
Venous blood samples were taken at specified time points after dosing from each animal. The blood samples were collected and transferred into tubes containing potassium (K2) EDTA anticoagulant.
The FGF19 ELISA assay kit from BioVendor (product number RD191107200R) was used to determine FGF19 concentrations in the collected blood samples.
Activation of the Farnesoid X receptor in the distal small intestine as well as systemically in organs such as the liver, directly causes the expression and secretion of FGF19. Plasma FGF levels were evaluated as a pharmacodynamics marker of FXR activation in male cynomolgus monkeys following administration of oral and intravenous administration of doses of Example 1, Comparative Example 1, or Comparative Example 2. The difference between levels of FGF19 following oral administration (PO) versus intravenous administration (IV) were used to compare the degree of intestinal FXR agonism (via analysis of PO data) and systemic FXR agonism (via analysis of IV data) for each compound administered. Plasma levels of drug and FGF19 were measured at various time points over a 24 hour period to generate pharmacokinetic and pharmacodynamics curves.

For `O=C(O)c1cnc(N2CC(O)(c3ccc(OCc4c(-c5c(Cl)cc(F)cc5Cl)noc4C4CC4)cc3Cl)C2)c(F)c1` [Comparative Example 1, 6-(3-(2-chloro-4-((5-cyclopropyl-3-(2,6-dichloro-4-fluorophenyl)isoxazol-4-yl)methoxy)phenyl)-3-hydroxyazetidin-1-yl)-5-fluoronicotinic acid], the “FGF19 levels compared to baseline” value (1 mg/kg) was “increased FGF19 levels”, the “FGF19 AUClast” value (IV infusion, 1 mg/kg) was 22798 ± 2387 pg·h/mL and the “Ratio AUClast to FG19/GS” value (IV, 1 mg/kg) was 14. For the same compound, the PO/IV was 1.37, the “FGF19 AUClast” value (PO, 5 mg/kg) was 32085 ± 4252 pg·h/mL and the “Ratio AUClast to FG19/GS” value (PO, 5 mg/kg) was 19.2. The “plasma FGF19 over the dosing interval compared to baseline” value (5 mg/kg) was “caused increases in plasma FGF19”.

`O=C(O)c1ccc(N2CC(O)(c3ccc(OCc4c(-c5c(Cl)cccc5Cl)noc4C4CC4)cc3Cl)C2)nc1` [Comparative Example 2] was tested, and the “FGF19 levels compared to baseline” value (1 mg/kg) was “increased FGF19 levels”, the “FGF19 AUClast” value (IV infusion, 1 mg/kg) was 10757 ± 2551 pg·h/mL and the “Ratio AUClast to FG19/GS” value (IV, 1 mg/kg) was 3.4. The PO/IV was 8.2, the “FGF19 AUClast” value (PO, 5 mg/kg) was 18193 ± 7134 pg·h/mL and the “Ratio AUClast to FG19/GS” value (PO, 5 mg/kg) was 28. For the same compound, the “plasma FGF19 over the dosing interval compared to baseline” value (5 mg/kg) was “caused increases in plasma FGF19”.

For `O=C(O)c1ccc(N2CC(O)(c3ccc(OCc4c(-c5c(Cl)cc(F)cc5Cl)noc4C4CC4)cc3Cl)C2)nc1` [Example 1, 6-(3-(2-chloro-4-((5-cyclopropyl-3-(2,6-dichloro-4-fluorophenyl)isoxazol-4-yl)methoxy)phenyl)-3-hydroxyazetidin-1-yl)nicotinic acid], the “FGF19 levels compared to baseline” value (1 mg/kg) was “did not cause in increase in FGF19”, the “FGF19 AUClast” value (IV infusion, 1 mg/kg) was 5144 ± 2199 pg·h/mL and the “Ratio AUClast to FG19/GS” value (IV, 1 mg/kg) was 1.6. The PO/IV was 7.8, the “FGF19 AUClast” value (PO, 5 mg/kg) was 28153 ± 11539 pg·h/mL and the “Ratio AUClast to FG19/GS” value (PO, 5 mg/kg) was 12.5. For the same compound, the “plasma FGF19 over the dosing interval compared to baseline” value (5 mg/kg) was “caused increases in plasma FGF19”.
